PubChem BioAssay (NCI)
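Following 48 hours of exposure in 96-well plates, responses at five concentrations were used to interpolate endpoints linearly. At the GI50, growth is halved. The concentration for full growth arrest is given as TGI.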

Assays:
Test in all cases: DTP human tumour cell line panel, 48 h
CCRF-CEM leukemia = system: CCRF-CEM leukemia
MALME-3M melanoma = system: MALME-3M melanoma
MCF7 breast = system: MCF7 breast
NCI-H460 lung = system: NCI-H460 lung
NCI-H522 lung = system: NCI-H522 lung
RXF 393 renal = system: RXF 393 renal
SK-MEL-2 melanoma = system: SK-MEL-2 melanoma
SK-MEL-5 melanoma = system: SK-MEL-5 melanoma
HOP-92 NSCLC = system: HOP-92 NSCLC
OVCAR-4 ovarian = system: OVCAR-4 ovarian

Compound | TGI (CCRF-CEM leukemia) [µM] | TGI (MALME-3M melanoma) [µM] | TGI (MCF7 breast) [µM] | TGI (NCI-H460 lung) [µM] | TGI (NCI-H522 lung) [µM] | TGI (RXF 393 renal) [µM] | TGI (SK-MEL-2 melanoma) [µM] | TGI (SK-MEL-5 melanoma) [µM] | GI50 (CCRF-CEM leukemia) [µM] | GI50 (HOP-92 NSCLC) [µM] | TGI (HOP-92 NSCLC) [µM] | GI50 (MALME-3M melanoma) [µM] | GI50 (MCF7 breast) [µM] | GI50 (NCI-H460 lung) [µM] | GI50 (NCI-H522 lung) [µM] | GI50 (OVCAR-4 ovarian) [µM] | TGI (OVCAR-4 ovarian) [µM] | GI50 (SK-MEL-2 melanoma) [µM] | GI50 (SK-MEL-5 melanoma) [µM] | GI50 (RXF 393 renal) [µM]
[N-]=[N+]=C(C(=O)CN1CCCC1=O)S(=O)(=O)c1ccccc1 | > 100 | > 100 | > 100 | > 100 | > 100 | > 100 | > 100 | > 100 | – | – | – | – | – | – | – | – | – | – | – | –
Cc1nnc(N/N=C/c2ccc([N+](=O)[O-])o2)[nH]c1=O | – | 4.3 | > 100 | 14.6 | 5.58 | – | > 48.8 | 3.3 | 0.441 | 0.228 | 1.76 | 0.97 | 1.24 | 3.19 | 0.914 | 3.36 | > 100 | 3.14 | 0.84 | –
CC1=CC(C)=N/C(=N/S(=O)(=O)c2cc(C)c(Cl)cc2SCc2ccccc2)NN1 | > 100 | > 100 | > 100 | > 100 | > 100 | – | > 100 | > 100 | > 100 | 17.9 | 62.8 | > 100 | > 100 | > 100 | 96.6 | 79.1 | > 100 | > 100 | > 100 | –
CCCCCCCCCCCCCCNCC(OC)OC | 36.4 | 35.3 | – | 34.1 | 34.2 | 28.9 | 30.9 | 29.3 | – | – | 23.9 | – | – | – | – | – | 30.1 | – | – | –
CCC(O)CCCCCCCCCCCCCCC(=O)O (stereo not given) | > 100 | > 100 | – | > 100 | > 100 | > 100 | > 100 | 40.6 | – | – | > 100 | – | – | – | – | – | > 100 | – | – | –
COc1cc(/C=C2\[C@@H]3NC(Cc4c(OC)c(C)c(OC)c(OC)c43)C(=O)N2Cc2ccccc2)c(OC)c(C)c1OC | > 100 | 91.4 | – | 60.7 | 55 | 72.8 | 36.3 | > 100 | – | – | 69.1 | – | – | – | – | – | 89.8 | – | – | –
O=[N+]([O-])c1ccc2c(c1)C(N1CCN(CCO)CC1)Cc1ccc(F)cc1S2 (stereo not given) | 16.1 | – | 28.8 | 27.3 | 18.3 | 4.73 | – | 3.48 | – | – | – | – | – | – | – | – | 33.5 | – | – | –
CC1(c2ccc(F)cc2)C2C(=O)NC(=O)C1C(=O)NC2=O (stereo not given) | > 100 | > 100 | – | > 100 | > 100 | > 100 | > 100 | > 100 | – | – | > 100 | – | – | – | – | – | > 100 | – | – | –
Cc1cc(I)cc(CN(C)CCCN2CCC(C)CC2)c1O | – | 33 | 28.2 | 25 | 32.2 | 23.5 | 33.9 | 17.2 | – | 6.62 | 21.5 | 16.9 | 14.2 | 12.5 | 16.4 | 13.1 | 31.7 | 17.4 | 4.98 | 10.5
CC1C(c2ccccc2)N(C)C(c2ccccc2)C(C)C1(O)c1ccccc1 (stereo not given) | > 100 | > 100 | – | > 100 | > 100 | > 100 | > 100 | > 100 | – | – | > 100 | – | – | – | – | – | > 100 | – | – | –
C[C@@H]1CC[C@@H]2[C@@H]1[C@H](OC(=O)/C=C/C1CCCCC1)[C@]1(C3CCCCC3)C[C@@H](OC(=O)CO)[C@@]2(C)O1 | 34.7 | 28.9 | 25.6 | 30 | 27.1 | – | 28.5 | 26.6 | 16.4 | 7.14 | 19.6 | 14.5 | 12.8 | 14.6 | 13.7 | 13.1 | 26.6 | 15 | 14 | –
NC1CC(=O)c2c(-c3cccs3)sc(-c3cccs3)c21 (stereo not given) | > 100 | > 100 | 44.4 | > 100 | 87.5 | > 100 | – | > 100 | 3.89 | 16.6 | 66.2 | 37.8 | 16.9 | 38.7 | 22.1 | 43 | > 100 | – | 28 | 59.1
O=C(CC12C3C4C1C1C2C3C41CC(=O)NO)NO (stereo not given) | 80.1 | > 100 | – | 62.5 | 77.4 | – | > 100 | > 100 | – | – | 97 | – | – | – | – | – | – | – | – | –
O=C(NC1CCC[C@H]1OC(=O)c1ccccc1)c1ccccc1 (stereo not given in full) | > 100 | > 100 | – | > 100 | – | > 100 | > 100 | > 100 | – | – | > 100 | – | – | – | – | – | > 100 | – | – | –
NS(=O)(=O)c1ccc(-n2nc3c(c2-c2cccs2)Cc2ccccc2-3)cc1 | 28.7 | – | > 100 | > 100 | 29.8 | 40.7 | 69.6 | 22.5 | 4.24 | 5.56 | 22.7 | – | > 100 | > 100 | 12.4 | 29.9 | > 100 | 27.6 | 10.5 | 17.4
CCO/C=C\C12CCCC1NC(c1ccccc1)(c1ccccc1)O2 (stereo not given) | 51 | 54.3 | – | > 100 | 83.3 | 81.3 | 45.7 | 31.1 | – | – | 52.3 | – | – | – | – | – | > 100 | – | – | –
COc1ccc2c3ccnc(C(F)(F)F)c3n(CCCCN)c2c1 | 47.8 | 5.36 | 17.4 | 17.7 | 21.4 | 6.93 | 35.7 | 9.05 | 9.02 | – | – | 2.02 | 4.61 | 5.18 | 6.22 | 11.7 | 25.5 | 16.8 | 2.83 | 2.3
Nc1nc2cc(Cl)ccc2n1N | > 100 | > 100 | > 100 | – | > 100 | > 100 | – | > 100 | – | – | – | – | – | – | – | – | – | – | – | –
